Source: PubChem BioAssay (NCI)
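Each compound was tested at five concentrations against cells in 96-well plates for 48 hours. GI50 = concentration required for 50% inhibition of growth. At the TGI there is no net growth.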

Legend:
Experiment in all cases: DTP human tumour cell line panel, 48 h
[1] = test system: A498 renal
[2] = test system: COLO 205 colon
[3] = test system: EKVX NSCLC
[4] = test system: HOP-92 NSCLC
[5] = test system: HS 578T breast
[6] = test system: NCI-H460 lung
[7] = test system: OVCAR-4 ovarian
[8] = test system: RPMI-8226 leukemia
[9] = test system: RXF 393 renal
[10] = test system: UACC-62 melanoma

Row | SMILES | GI50 [1] [µM] | TGI [1] [µM] | GI50 [2] [µM] | TGI [2] [µM] | GI50 [3] [µM] | TGI [3] [µM] | GI50 [4] [µM] | TGI [4] [µM] | GI50 [5] [µM] | TGI [5] [µM] | GI50 [6] [µM] | TGI [6] [µM] | GI50 [7] [µM] | TGI [7] [µM] | GI50 [8] [µM] | TGI [8] [µM] | GI50 [9] [µM] | TGI [9] [µM] | GI50 [10] [µM] | TGI [10] [µM]
1 | Fc1ccc(Nc2nc(Nc3ccc(-c4nc5ccccc5[nH]4)cc3)c3cn[nH]c3n2)cc1 | 14.6 | 27.7 | 1.75 | 3.67 | 2.5 | 8.28 | 1.5 | 3.19 | 2.12 | 5.35 | 1.99 | 3.97 | 1.6 | 3.6 | 2.3 | 5.2 | 1.67 | 3.4 | – | –
2 | C=C(C)C(=O)Nc1ccc(-c2c(-c3ccc(Oc4nccc(C)n4)c(F)c3)c3c(N)ncnc3n2C)cc1 | 1.72 | 9.88 | 3.79 | 13.8 | 3.43 | 17.1 | 2.83 | 32.3 | 1.09 | 4.1 | 3.05 | 13.3 | 2.84 | 33.8 | 2.74 | 17.3 | 0.0946 | 0.984 | – | –
3 | O=C(NCCNCCO)c1ccc(Nc2nc3ccccc3c3occc23)cc1 | 18.3 | 39.4 | 29.1 | > 100 | 13.9 | 32 | 3.01 | 18.4 | 16.1 | 36.7 | 28.5 | > 100 | 24 | > 100 | 18.3 | 37.5 | – | – | 16.6 | 30.8
4 | O=C1NC(=NCCc2ccc(Br)cc2)S/C1=C\c1ccc2ncccc2c1 | 6.29 | > 25 | > 25 | > 25 | – | – | > 25 | > 25 | 11 | > 25 | > 25 | > 25 | 10.5 | > 25 | > 25 | > 25 | > 20.9 | > 25 | > 25 | > 25
5 | COc1cc(C(=O)O[C@H](C(=O)NCCCCNC(=O)[C@@H](OC(=O)c2cc(OC)cc3c(C)cccc23)[C@]2(C)CO2)[C@]2(C)CO2)c2cccc(C)c2c1 | 2.46 | 5.16 | 0.111 | 3.65 | 0.227 | 2.57 | 0.0452 | 0.22 | 0.479 | > 100 | < 0.0354 | 0.228 | 0.218 | 2.08 | 0.195 | 3.86 | – | – | 1.5 | 3.64
6 | Cc1ccc(-c2nc3sc(C)cn3c2/C=C2\C(=O)Nc3ccc(Cl)cc32)cc1 | 16.3 | 36 | 31 | > 100 | 16 | 39.3 | 7.66 | 25.1 | 8.02 | 73.7 | 15.7 | 31.9 | 14.5 | 29.9 | 22.4 | 58.6 | – | – | 13.3 | 27.7
7 | Clc1ccc(-c2nc(NCc3ccco3)c3ccccc3n2)c(Cl)c1 | 22 | 41 | 21.4 | > 100 | – | – | 4.94 | 74.7 | 14.2 | 46.4 | 32.9 | > 100 | 43.3 | > 100 | 5.64 | 81.9 | 20.4 | 43.1 | 13.9 | 32.7
8 | COc1cnccc1Nc1nc(-c2nn(Cc3c(F)cc(OCCO)cc3F)c3ccccc23)ncc1OC | 12.7 | 50.2 | 17.7 | > 100 | 13.5 | 61.6 | 0.634 | > 100 | 9.08 | 26.3 | 2.06 | 10.6 | 1.74 | 3.68 | 2.19 | 55.2 | 3.85 | 17.1 | – | –
9 | C[C@]12CCC(=O)C[C@@H]1CC[C@@H]1[C@@H]2CC[C@]2(C)[C@@H](OC(=O)N(CCCl)N=O)CC[C@@H]12 | 1.82 | 4.98 | 1.7 | 4.72 | 4.88 | > 41.1 | 0.179 | 11.1 | 2.13 | 16.9 | 0.06 | 2.99 | 11.5 | 29.7 | 2.02 | 6.89 | – | – | 0.377 | 11.7
10 | O=C1/C(=C/c2ccc([N+](=O)[O-])o2)Oc2ccc(Cl)cc21 | 14.4 | 34 | 1.89 | 4.08 | – | – | 1.45 | 3.31 | 2.95 | > 27.6 | 3 | 15.4 | 1.9 | 3.68 | 1.37 | 4.72 | 1.65 | 3.6 | 1.58 | 3.41
